This note sets out measurements from patent US9090628B2, “Benzoxazepin compounds selective for PI3K P110 delta and methods of use” (GENENTECH, INC., priority 2011, dated 2015).

Experiment [1] has as its target p110 alpha (Homo sapiens (Human), UniProt P42336). In words: PI3K isoform inhibition assay, p110 alpha (for alpha/delta selectivity). Conditions: ratio of biochemical IC50 values. Here is the method:
(§1) PI3K enzymatic activity was assayed by measuring the amount of product phosphatidylinositol 3,4,5-phosphate (PIP3) formed from substrate 4,5 phosphatidylinositol 4,5-phosphate (PIP2) using a fluorescence polarization displacement assay. The decrease in fluorescence polarization of a fluorescent PIP3 probe is measured as it is displaced from a PIP3-binding protein GRP-1 detector by PI3K-catalyzed product. […] The kinase reactions were initiated by the addition of 40 ng/mL p110α/p85α, 300 ng/mL p110β/p85α, 40 ng/mL p110γ, or 40 ng/mL p110δ/p85α (Upstate Group, Millipore; Dundee, UK), and 10 μM PIP2 (Echelon Biosciences) to the wells. […] After 60 minutes of incubation at room temperature to allow equilibration of labeled and unlabeled PIP3 binding, the parallel and perpendicular components of the fluorescence emissions from each sample were measured at an excitation wavelength of 530 nm and an emission wavelength of 590 nm using an Envision fluorescent plate reader with a rhodamine filter (PerkinElmer Life and Analytical Sciences; Wellesley, Mass.). The assay is capable of detecting 0.1-2.0 μM PIP3 product. The IC50 values were obtained by fitting the dose-dependent inhibition data to a 4-parameter equation using Assay Explorer software (MDL, San Ramon, Calif.).
The same protocol may be used to establish IC50 values for p110α (alpha) PI3K binding.
(§2) The four Class I PI 3-kinases are cloned into baculovirus vectors as follows: […]

In experiment [2] the target is p110 delta (Homo sapiens (Human), UniProt O00329). In words: PI3K isoform inhibition assay, p110 delta (fluorescence polarization displacement). It is filed as biochemical. As to the method: as §1
Sequence of p110 delta (O00329 whole entry, canonical isoform): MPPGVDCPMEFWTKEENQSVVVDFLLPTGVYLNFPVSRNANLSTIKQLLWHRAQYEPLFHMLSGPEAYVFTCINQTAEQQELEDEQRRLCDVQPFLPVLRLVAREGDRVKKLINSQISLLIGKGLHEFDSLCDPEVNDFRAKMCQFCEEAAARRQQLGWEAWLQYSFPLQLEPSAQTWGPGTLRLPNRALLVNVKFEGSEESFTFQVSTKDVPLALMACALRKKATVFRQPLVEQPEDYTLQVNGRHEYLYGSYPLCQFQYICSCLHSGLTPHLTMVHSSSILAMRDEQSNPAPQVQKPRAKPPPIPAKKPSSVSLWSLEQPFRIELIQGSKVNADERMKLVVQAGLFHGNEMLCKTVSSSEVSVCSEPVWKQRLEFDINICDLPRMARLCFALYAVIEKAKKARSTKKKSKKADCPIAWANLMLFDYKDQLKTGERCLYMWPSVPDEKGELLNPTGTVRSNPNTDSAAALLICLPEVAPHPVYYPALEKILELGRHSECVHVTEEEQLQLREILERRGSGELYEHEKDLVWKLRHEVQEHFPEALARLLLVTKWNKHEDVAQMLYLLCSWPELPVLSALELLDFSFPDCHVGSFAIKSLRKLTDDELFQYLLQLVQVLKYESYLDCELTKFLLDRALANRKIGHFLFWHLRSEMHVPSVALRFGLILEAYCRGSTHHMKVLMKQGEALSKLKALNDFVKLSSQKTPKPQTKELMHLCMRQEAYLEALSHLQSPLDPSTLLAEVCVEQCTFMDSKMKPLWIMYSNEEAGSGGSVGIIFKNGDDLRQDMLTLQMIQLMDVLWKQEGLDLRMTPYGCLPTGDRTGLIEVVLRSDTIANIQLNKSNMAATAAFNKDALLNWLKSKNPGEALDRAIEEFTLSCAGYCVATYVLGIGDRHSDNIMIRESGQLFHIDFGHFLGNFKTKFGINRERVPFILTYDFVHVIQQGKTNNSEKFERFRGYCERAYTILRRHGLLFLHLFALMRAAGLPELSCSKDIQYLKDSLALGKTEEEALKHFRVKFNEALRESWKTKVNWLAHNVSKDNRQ
Sequence of p110 delta (P27986 whole entry partner, canonical isoform): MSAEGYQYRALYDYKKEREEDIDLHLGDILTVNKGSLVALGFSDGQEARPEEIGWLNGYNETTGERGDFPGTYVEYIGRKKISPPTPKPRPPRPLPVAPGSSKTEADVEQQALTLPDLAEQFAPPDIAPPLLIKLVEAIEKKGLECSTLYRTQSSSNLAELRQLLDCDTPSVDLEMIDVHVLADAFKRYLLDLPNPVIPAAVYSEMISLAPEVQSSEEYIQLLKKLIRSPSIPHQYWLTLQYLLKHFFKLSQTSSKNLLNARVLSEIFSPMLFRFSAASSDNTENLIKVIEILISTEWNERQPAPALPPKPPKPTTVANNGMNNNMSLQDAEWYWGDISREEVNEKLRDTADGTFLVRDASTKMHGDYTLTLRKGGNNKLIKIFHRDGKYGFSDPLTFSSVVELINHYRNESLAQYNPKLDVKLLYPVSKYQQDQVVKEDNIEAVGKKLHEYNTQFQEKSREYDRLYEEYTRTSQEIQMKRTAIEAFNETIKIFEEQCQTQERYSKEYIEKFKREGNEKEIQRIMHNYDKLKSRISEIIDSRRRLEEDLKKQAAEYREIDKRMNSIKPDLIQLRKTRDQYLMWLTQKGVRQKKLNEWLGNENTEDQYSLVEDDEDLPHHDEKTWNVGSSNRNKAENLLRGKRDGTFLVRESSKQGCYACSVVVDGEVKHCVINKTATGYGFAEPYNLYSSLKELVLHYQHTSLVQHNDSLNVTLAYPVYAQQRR
The Formula I compound was serially diluted in 100% DMSO. The kinase reaction was incubated for 1 h at room temperature, and the reaction was terminated by the addition of PBS. IC50 values were subsequently determined using sigmoidal dose-response curve fit (variable slope).
as §2
(In general: Fluorescence polarisation rises when a labelled molecule tumbles more slowly, as on binding a larger partner.)

pIC50: −log10 of the molar value.

Sequence of p110 alpha (P42336 whole entry, canonical isoform): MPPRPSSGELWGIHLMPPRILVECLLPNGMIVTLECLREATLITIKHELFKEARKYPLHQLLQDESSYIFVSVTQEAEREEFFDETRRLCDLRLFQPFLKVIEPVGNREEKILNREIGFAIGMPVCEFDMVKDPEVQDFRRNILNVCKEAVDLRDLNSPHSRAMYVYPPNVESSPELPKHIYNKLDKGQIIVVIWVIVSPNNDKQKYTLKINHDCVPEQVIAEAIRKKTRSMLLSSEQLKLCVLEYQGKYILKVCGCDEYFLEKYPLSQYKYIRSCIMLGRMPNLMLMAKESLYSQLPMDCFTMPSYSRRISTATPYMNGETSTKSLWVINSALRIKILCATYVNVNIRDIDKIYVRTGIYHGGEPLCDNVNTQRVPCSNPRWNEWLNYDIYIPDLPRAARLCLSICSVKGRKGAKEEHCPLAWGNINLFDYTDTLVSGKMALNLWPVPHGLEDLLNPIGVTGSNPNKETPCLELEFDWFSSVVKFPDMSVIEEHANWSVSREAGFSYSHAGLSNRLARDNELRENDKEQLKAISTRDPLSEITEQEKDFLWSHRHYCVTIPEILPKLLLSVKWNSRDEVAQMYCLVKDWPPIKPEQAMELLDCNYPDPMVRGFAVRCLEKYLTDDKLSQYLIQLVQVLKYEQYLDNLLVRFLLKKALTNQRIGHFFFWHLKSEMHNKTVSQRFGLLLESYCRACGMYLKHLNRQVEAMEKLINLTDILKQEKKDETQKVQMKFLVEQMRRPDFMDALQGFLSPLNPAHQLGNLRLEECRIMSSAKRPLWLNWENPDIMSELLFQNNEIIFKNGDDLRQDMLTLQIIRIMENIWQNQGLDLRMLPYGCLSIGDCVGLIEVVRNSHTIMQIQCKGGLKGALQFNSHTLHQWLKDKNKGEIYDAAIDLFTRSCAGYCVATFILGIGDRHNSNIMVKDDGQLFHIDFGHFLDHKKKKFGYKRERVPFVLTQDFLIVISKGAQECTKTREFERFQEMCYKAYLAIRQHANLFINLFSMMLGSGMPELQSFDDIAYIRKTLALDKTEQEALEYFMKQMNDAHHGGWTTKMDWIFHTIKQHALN
Sequence of p110 alpha (P27986 whole entry partner, canonical isoform): as the sequence (P27986 whole entry partner, canonical isoform) above

By pIC50 is commonly meant −log10 of the IC50, conventionally taken in molar units. The low end stands for a high IC50, the high end for a low IC50. Turning to `Cc1nc(-c2cn3c(n2)-c2ccc(-c4ccnn4C4CC(C)N(C)C(C)C4)cc2OCC3)n(C(C)C)n1` (stereo not drawn) [Example 282, 2-(2-isopropyl-5-methyl-1,2,4-triazol-3-yl)-9-[2-(1,2,6-trimethyl-4-piperidyl)pyrazol-3-yl]-5,6-dihydroimidazo[1,2-d][1,4]benzoxazepine], the “IC50 p110 alpha/IC50 p110 delta” value in experiment [1] came out at 76.9. This compound also had a pIC50 in experiment [2] of 8.89.
For `Cc1nc(-c2cn3c(n2)-c2ccc(OC4(CC5CC5)CN(C(C)C)C4)cc2OCC3)n(C(C)C)n1` [Example 283, 9-[3-(cyclopropylmethyl)-1-isopropyl-azetidin-3-yl]oxy-2-(2-isopropyl-5-methyl-1,2,4-triazol-3-yl)-5,6-dihydroimidazo[1,2-d][1,4]benzoxazepine], in that order: 75.5 and 9.03.
For `Cc1nc(-c2cn3c(n2)-c2ccc(OC4(CC5CC5)CNC4)cc2OCC3)n(C(C)C)n1` [Example 284, 9-[3-(cyclopropylmethyl)azetidin-3-yl]oxy-2-(2-isopropyl-5-methyl-1,2,4-triazol-3-yl)-5,6-dihydroimidazo[1,2-d][1,4]benzoxazepine], in that order: 23.9 and 8.54.
Taken in the same sequence, the figures for `Cc1nc(-c2cn3c(n2)-c2ccc(-c4ccnn4C4CCCN(C5(C)COC5)C4)cc2OCC3)n(C(C)C)n1` (stereo not drawn) [Example 285, 2-(2-isopropyl-5-methyl-1,2,4-triazol-3-yl)-9-[2-[1-(3-methyloxetan-3-yl)-3-piperidyl]pyrazol-3-yl]-5,6-dihydroimidazo[1,2-d][1,4]benzoxazepine] were 31.9 and 8.86.
Consider `Cc1nc(-c2cn3c(n2)-c2ccc(-c4cnn(C)c4C4CCCCN4CC(C)(C)O)cc2OCC3)n(C(C)C)n1` (stereo not drawn) [Example 289, 1-[2-[4-[2-(2-isopropyl-5-methyl-1,2,4-triazol-3-yl)-5,6-dihydroimidazo[1,2-d][1,4]benzoxazepin-9-yl]-2-methyl-pyrazol-3-yl]-1-piperidyl]-2-methyl-propan-2-ol], for which the “IC50 p110 alpha/IC50 p110 delta” value in experiment [1] amounted to 13.1. For the same compound, the pIC50 in experiment [2] was 9.07.
For `CC(C)n1nc(CO)nc1-c1cn2c(n1)-c1ccc(-c3ccnn3C3CCN(C)CC3)cc1OCC2` [Example 290, [1-isopropyl-5-[9-[2-(1-methyl-4-piperidyl)pyrazol-3-yl]-5,6-dihydroimidazo[1,2-d][1,4]benzoxazepin-2-yl]-1,2,4-triazol-3-yl]methanol], in that order: 15.9 and 8.62.
Turning to `Cc1nc(-c2cn3c(n2)-c2ccc(N4CCC4C4CCN(C(C)C)CC4)cc2OCC3)n(C(C)C)n1` (stereo not drawn) [Example 293, 2-(2-isopropyl-5-methyl-1,2,4-triazol-3-yl)-9-[2-(1-isopropyl-4-piperidyl)azetidin-1-yl]-5,6-dihydroimidazo[1,2-d][1,4]benzoxazepine], in experiment [1], the “IC50 p110 alpha/IC50 p110 delta” value was determined as 10.3. Also, the pIC50 in experiment [2] was 8.83.
In the case of `Cc1nc(-c2cn3c(n2)-c2cc([C@@H](C)N4CCN(C(C)(C)C)CC4)c(F)cc2OCC3)n(C(C)C)n1` [Example 294, (R)-10-(1-(4-tert-butylpiperazin-1-yl)ethyl)-9-fluoro-2-(1-isopropyl-3-methyl-1H-1,2,4-triazol-5-yl)-5,6-dihydrobenzo[f]imidazo[1,2-d][1,4]oxazepine], the “IC50 p110 alpha/IC50 p110 delta” value in experiment [1] is 479. This compound also gave a pIC50 in experiment [2] of 9.11.
For `Cc1nc(-c2cn3c(n2)-c2ccc(-c4ccnn4C4CCN(C(C)C)CC4)cc2OCC3)n(C(C)C)n1` [Example 296, 2-(2-isopropyl-5-methyl-1,2,4-triazol-3-yl)-9-[2-(1-isopropyl-4-piperidyl)pyrazol-3-yl]-5,6-dihydroimidazo[1,2-d][1,4]benzoxazepine], in that order: 31.5 and 8.97.
As for `Cc1nc(-c2cn3c(n2)-c2cc([C@H](C)N4CCN(C(C)(C)C)CC4)c(F)cc2OCC3)n(C(C)C)n1` [Example 297, (S)-10-(1-(4-tert-butylpiperazin-1-yl)ethyl)-9-fluoro-2-(1-isopropyl-3-methyl-1H-1,2,4-triazol-5-yl)-5,6-dihydrobenzo[f]imidazo[1,2-d][1,4]oxazepine], the “IC50 p110 alpha/IC50 p110 delta” value in experiment [1] worked out at 102. The compound also had a pIC50 in experiment [2] of 8.62.
Taken in the same sequence, the figures for `CC(C)n1nc(N)nc1-c1cn2c(n1)-c1ccc(-c3ccnn3C3CCN(C)CC3)cc1OCC2` [Example 298, 1-isopropyl-5-[9-[2-(1-methyl-4-piperidyl)pyrazol-3-yl]-5,6-dihydroimidazo[1,2-d][1,4]benzoxazepin-2-yl]-1,2,4-triazol-3-amine] were 54.6 and 9.15.
For `Cc1nc(-c2cn3c(n2)-c2ccc(OC4(CC(C)C)CN(C(C)C)C4)cc2OCC3)n(C(C)C)n1` [Example 301, 9-(3-isobutyl-1-isopropyl-azetidin-3-yl)oxy-2-(2-isopropyl-5-methyl-1,2,4-triazol-3-yl)-5,6-dihydroimidazo[1,2-d][1,4]benzoxazepine], in that order: 32.1 and 8.06.
Taken in the same sequence, the figures for `Cc1nc(-c2cn3c(n2)-c2cc([C@H](C)N4CCN(C(C)(C)C)CC4)ncc2OCC3)n(C(C)C)n1` [Example 303, (S)-10-(1-(4-tert-butylpiperazin-1-yl)ethyl)-2-(1-isopropyl-3-methyl-1H-1,2,4-triazol-5-yl)-5,6-dihydroimidazo[1,2-d]pyrido[4,3-f][1,4]oxazepine] were 113 and 8.72.
Take `CCN1CCC(C2CCCN2c2ccc3c(c2)OCCn2cc(-c4nc(C)nn4C(C)C)nc2-3)CC1` (stereo not drawn) [Example 304, 9-[2-(1-ethyl-4-piperidyl)pyrrolidin-1-yl]-2-(2-isopropyl-5-methyl-1,2,4-triazol-3-yl)-5,6-dihydroimidazo[1,2-d][1,4]benzoxazepine]: the “IC50 p110 alpha/IC50 p110 delta” value in experiment [1] worked out at 36.4. In experiment [2], this compound showed a pIC50 of 9.28.
Regarding `Cc1nc(-c2cn3c(n2)-c2cc([C@@H](C)N4CCN(C(C)(C)C)CC4)ncc2OCC3)n(C(C)C)n1` [Example 305, (R)-10-(1-(4-tert-butylpiperazin-1-yl)ethyl)-2-(1-isopropyl-3-methyl-1H-1,2,4-triazol-5-yl)-5,6-dihydroimidazo[1,2-d]pyrido[4,3-f][1,4]oxazepine], in experiment [1], the “IC50 p110 alpha/IC50 p110 delta” value is 28.6. The pIC50 in experiment [2] was 8.55.
For the compound `Cc1nc(-c2cn3c(n2)-c2ccc(N4CCCC4C4CCN(S(C)(=O)=O)CC4)cc2OCC3)n(C(C)C)n1` (stereo not drawn) [Example 306, 2-(2-isopropyl-5-methyl-1,2,4-triazol-3-yl)-9-[2-(1-methylsulfonyl-4-piperidyl)pyrrolidin-1-yl]-5,6-dihydroimidazo[1,2-d][1,4]benzoxazepine], the “IC50 p110 alpha/IC50 p110 delta” value in experiment [1] worked out at 12.4. Also, the pIC50 in experiment [2] is 8.93.
Taken in the same sequence, the figures for `Cc1nc(-c2cn3c(n2)-c2ccc(N4CCCC4C4CCCN(C)C4)cc2OCC3)n(C(C)C)n1` (stereo not drawn) [Example 311, 2-(2-isopropyl-5-methyl-1,2,4-triazol-3-yl)-9-[2-(1-methyl-3-piperidyl)pyrrolidin-1-yl]-5,6-dihydroimidazo[1,2-d][1,4]benzoxazepine] were 46.8 and 8.87.
On to `Cc1nc(-c2cn3c(n2)-c2ccc(N4CCCC45CCCN(C)C5)cc2OCC3)n(C(C)C)n1` (stereo not drawn) [Example 314, 2-(2-isopropyl-5-methyl-1,2,4-triazol-3-yl)-9-(7-methyl-1,7-diazaspiro[4.5]decan-1-yl)-5,6-dihydroimidazo[1,2-d][1,4]benzoxazepine], for which the “IC50 p110 alpha/IC50 p110 delta” value in experiment [1] is on record as 50.1. The pIC50 in experiment [2] was 9.47.
In the case of `Cc1nc(-c2cn3c(n2)-c2cc(-c4ccnn4[C@@H]4CCCN(C(C)C)C4)c(F)cc2OCC3)n(C(C)C)n1` [Example 315, (R)-9-fluoro-2-(1-isopropyl-3-methyl-1H-1,2,4-triazol-5-yl)-10-(1-(1-isopropylpiperidin-3-yl)-1H-pyrazol-5-yl)-5,6-dihydrobenzo[f]imidazo[1,2-d][1,4]oxazepine], the “IC50 p110 alpha/IC50 p110 delta” value in experiment [1] is listed as 25.8. The compound also gave a pIC50 in experiment [2] of 9.36.
For `Cc1nc(-c2cn3c(n2)-c2cc(-c4ccnn4[C@H]4CCCN(C(C)C)C4)c(F)cc2OCC3)n(C(C)C)n1` [Example 316, (S)-9-fluoro-2-(1-isopropyl-3-methyl-1H-1,2,4-triazol-5-yl)-10-(1-(1-isopropylpiperidin-3-yl)-1H-pyrazol-5-yl)-5,6-dihydrobenzo[f]imidazo[1,2-d][1,4]oxazepine], in that order: 214 and over 10.46.
Taken in the same sequence, the figures for `Cc1nc(-c2cn3c(n2)-c2ccc(-c4cnc(C)n4C4CCCN(C(C)C)C4)cc2OCC3)n(C(C)C)n1` (stereo not drawn) [Example 317, 2-(2-isopropyl-5-methyl-1,2,4-triazol-3-yl)-9-[3-(1-isopropyl-3-piperidyl)-2-methyl-imidazol-4-yl]-5,6-dihydroimidazo[1,2-d][1,4]benzoxazepine] were 22.3 and 8.19.
